Test results: patent US7223766B2, “Bi-cyclic pyrimidine inhibitors of TGFβ” (Scios, Inc., priority 2003, dated 2007)

What was measured:
TGF R1 kinase = target: T1, TGF R1 kinase (Homo sapiens, UniProt P36897); assay: TGF-β inhibition assay: phosphorylation of the substrate casein by TGF R1 kinase; format: biochemical; details: table names no assay; casein assay of Example 2: 2.5 μM ATP, 100 μM casein, 6.4 nM TGF R1 kinase
T1 sequence (P36897 34-503): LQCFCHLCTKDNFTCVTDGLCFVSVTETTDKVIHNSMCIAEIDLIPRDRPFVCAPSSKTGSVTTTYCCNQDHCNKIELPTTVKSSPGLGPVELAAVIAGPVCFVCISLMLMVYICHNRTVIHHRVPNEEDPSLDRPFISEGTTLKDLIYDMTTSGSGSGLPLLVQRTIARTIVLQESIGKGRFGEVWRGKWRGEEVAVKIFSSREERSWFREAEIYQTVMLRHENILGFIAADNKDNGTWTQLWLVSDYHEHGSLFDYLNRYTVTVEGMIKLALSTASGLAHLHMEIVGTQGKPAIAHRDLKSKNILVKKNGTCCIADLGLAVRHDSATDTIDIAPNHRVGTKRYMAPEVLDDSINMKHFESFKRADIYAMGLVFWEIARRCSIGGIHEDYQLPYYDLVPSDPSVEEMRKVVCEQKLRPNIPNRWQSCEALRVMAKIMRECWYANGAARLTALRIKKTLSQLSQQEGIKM
Experimental: Invention compounds were tested for their abilities to inhibit the phosphorylation of the substrate casein. The assay was conducted as follows: Compound dilutions and reagents were prepared fresh daily. Compounds were diluted from DMSO stock solutions to 2 times the desired assay concentration, keeping final DMSO concentration in the assay less than or equal to 1%. TGF RI kinase was diluted to 4 times the desired assay concentration in buffer and DTT. ATP and casein were diluted into 4× reaction buffer, and gamma-^32P-ATP was added at 50 μCi/mL.
The assay was performed by adding 10 μl of the enzyme to 20 μl of the compound solution. The reaction was initiated by the addition of 10 μl of the casein/ATP mix. Final assay conditions included 2.5 μM ATP, 100 μM casein, 6.4 nM TGF R1 kinase, and […] in 20 mM Tris buffer, pH 7.5. The reactions were incubated at room temperature for 45 minutes. The reactions were then stopped by transferring 23 μl of reaction mixture onto a phosphocellulose 96-well filter plate, which had been pre-wetted with 15 μl of 0.25M H3PO4 per well. After 5 minutes, the wells were washed 4× with 75 mM H3PO4 and once with 95% ethanol. The plate was dried, scintillation cocktail was added to each well, and the wells were counted in a Packard TopCount microplate scintillation counter. The ability of a compound to inhibit the enzyme was determined by comparing the counts obtained in the presence of the compound to those of the positive control (in the absence of compound) and the negative control (in the absence of enzyme).
In both of the assays referenced above, IC50 values can be determined with curve-fitting plots available with common software packages. Approximate IC50 values can be calculated using formula: IC50 (app)=A×i/(1−A) where A=fractional activity and i=total inhibitor concentration.

P-Smad 2/3 = assay: Bleomycin-induced SMAD phosphorylation in rats, phospho SMAD 2/3 ELISA of lung tissue; format: in vivo, rat; details: male Sprague-Dawley rats, intratracheal bleomycin, oral 40 mg/kg bid days 1 to 5, versus control group
Experimental: The effect of TGF-beta inhibitors on bleomycin-induced SMAD phosphorylation was studied in male Sprague-Dawley rats purchased from Charles River. Rats were housed in groups of two in the animal facility and provided with filtered air at a constant temperature and humidity. The rats were allowed to acclimate to the new environment for one week before all treatments. A 12:12 hour light-dark cycle was maintained, and the animals had free access to food and water.
To induce SMAD activation, rats were intubated with 0.5 ml of saline or 0.5 ml of 1.0 unit/ml of bleomycin by intratracheal injection under anesthesia. The anesthetic solution used was a mixture of 0.4 ml of ketamine (100 mg/ml) and 0.25 ml of xylazine (20 mg/ml) at a dose of 1.3 ml/kg.
On days 1 to 5, treated rats were weighed and orally dosed with compound 35 two-times a day at 40 mg/kg.
On Day 5, after dosing, rats were sacrificed by an overdose of the ketamine/xylazine cocktail, and then the trachea, heart and lungs of the animals were removed en bloc. All lung lobes were collected, dissected and stored in −80° C. for phospo SMAD ELISA assays.
To evaluate the effect of SMAD activation (an indicia of fibrosis), a phospho SMAD 2/3 ELISA assay was performed using the lung tissue of the sacrificed animals.

| IC50 (TGF R1 kinase) [nM] | SMILES | bleomycin-induced phosphorylation of P-Smad 2/3 in the lung (P-Smad 2/3; 40 mg/kg) | bleomycin-induced phosphorylation of P-Smad 2/3 in the lung (P-Smad 2/3; listed as compound 35, 40 mg/kg) |
| --- | --- | --- | --- |
| 49 | CNC(=O)c1cnccc1Nc1nc(-c2cc(Cl)ccc2F)nc2c1CCC2 [Compound 35] | significantly reduce | reduce |
| 4080 | O=C(O)c1cnccc1Nc1nc(-c2cc(Cl)ccc2F)nc2c1CCCC2 [Compound 50, 4-[2-(5-Chloro-2-fluorophenyl)-5,6,7,8-tetrahydroquinazolin-4-ylamino]-nicotinic acid] | – | – |
| 6250 | CC1(C)Cc2nc(-c3cc(Cl)ccc3F)nc(Nc3ccncc3C(F)(F)F)c2C1 [Compound 61] | – | – |
| 90.2 | CN(C)CCCNC(=O)c1cnccc1Nc1nc(-c2cc(Cl)ccc2F)nc2c1CCC2 [Compound 69] | – | – |
| 6270 | Cc1cnccc1Nc1nc(-c2cc(Cl)ccc2F)nc2c1CNCC2 [Compound 22] | – | – |
| 14.5 | CNC(=O)c1cnccc1Nc1nc(-c2cc(Cl)ccc2F)nc2c1C(C)CC2 (centres unmarked) [Compound 47, 4-[2-(5-Chloro-2-fluorophenyl)-5-methyl-6,7-dihydro-5H-cyclopentapyrimidin-4-ylamino]-N-methyl-nicotinamide] | – | – |
